{"source": "patent EP0280603A1", "about": "“Absolute S confirmation enantiomers of amide derivatives of 3-aminoquinuclidine, process for their preparation and their therapeutical use” (DELALANDE S.A., priority 1987, dated 1988)", "key": {"[1]": {"system": "vomissements induits par le cisplatine", "experiment": "Oral antiemetic activity against cisplatin-induced vomiting in the dog", "assay_type": "in vivo, chien", "conditions": "for VOMISSEMENTS % DE DIMINUTION EN NOMBRE / VOMISSEMENTS % DE DIMINUTION EN TOUT OU RIEN / VOMISSEMENTS NOMBRE MOYEN: 6 h observation, 4 dogs; for VOMISSEMENTS NOMBRE MOYEN: control 10,8", "source_text": "A titre d'exemple, on étudie ci-après l'activité antiémétique par voie orale du chlorhydrate du N-(quinuclidinyl-3) amino-4 chloro-5 méthoxy-2 benzamide, sous la forme du mélange racémique (code MD 780209), de l'énantiomère lévogyre de configuration S (code MD 200054) et de l'énantiomère dextrogyre de configuration R (code MD 200051), vis-à-vis des vomissements induits par le cisplatine chez le chien.\nLa méthode est dérivée de celle décrite par J.A. GYLYS et coll. (Res. Commun. Chem. Pathol. Pharmacol. 1979, 23, n° 1, p. 61-68). Les vomissements sont induits par injection intraveineuse de cisplatine (DCI) à la dose de 3 mg/kg chez des chiens tout-venants, mâle ou femelle, de poids compris entre 10 et 16 kg, à la diète hydrique depuis 24 heures.\nLes composés à tester sont administrés par voie orale 60 minutes après l'injection de cisplatine.\nLes animaux sont alimentés 1 h 30 après le traitement. La durée d'observation est de 6 heures après l'injection de cisplatine."}, "[2]": {"experiment": "Side effects and toxicity at the active doses (no method described)", "assay_type": "in vivo", "conditions": "in words, compared with the dextrorotatory enantiomer"}, "[3]": {"conditions": "dog, 7,5 μ g/kg oral 60 min after cisplatin 3 mg/kg i.v."}, "[4]": {"conditions": "dog, 30 μ g/kg oral 60 min after cisplatin 3 mg/kg i.v."}, "[5]": {"conditions": "dog, 15 μ g/kg oral 60 min after cisplatin 3 mg/kg i.v."}}, "data": [{"compound": "COc1cc(N)c(Cl)cc1C(=O)N[C@@H]1CN2CCC1CC2", "note": "[MD 200054, N-(quinuclidinyl-3) amino-4 chloro-5 méthoxy-2 benzamide]", "values": [{"measurement": "VOMISSEMENTS % DE DIMINUTION EN NOMBRE", "setting": "[1]; [3]", "result": "95,3%"}, {"measurement": "VOMISSEMENTS % DE DIMINUTION EN TOUT OU RIEN", "setting": "[1]; [3]", "result": 75, "unit": "%"}, {"measurement": "VOMISSEMENTS NOMBRE MOYEN", "setting": "[1]; [3]", "result": "0,5"}, {"measurement": "inhiber les vomissements induits par des drogues anticancéreuses telles que le cisplatine", "setting": "[1]; in words, compared with the antipode MD 200051 and the corresponding racemate", "result": "beaucoup plus actif"}, {"measurement": "effets secondaires", "setting": "[2]", "result": "moins d'effets secondaires"}]}, {"compound": "COc1cc(N)c(Cl)cc1C(=O)N[C@H]1CN2CCC1CC2", "note": "[MD 200051, N-(quinuclidinyl-3) amino-4 chloro-5 méthoxy-2 benzamide]", "values": [{"measurement": "VOMISSEMENTS % DE DIMINUTION EN NOMBRE", "setting": "[1]; [4]", "result": "34,9%"}, {"measurement": "VOMISSEMENTS % DE DIMINUTION EN TOUT OU RIEN", "setting": "[1]; [4]", "result": 0, "unit": "%"}, {"measurement": "VOMISSEMENTS NOMBRE MOYEN", "setting": "[1]; [4]", "result": 7}]}, {"compound": "COc1cc(N)c(Cl)cc1C(=O)NC1CN2CCC1CC2", "note": "(racemic) [MD 780209, N-(quinuclidinyl-3) amino-4 chloro-5 méthoxy-2 benzamide, reference compound]", "values": [{"measurement": "VOMISSEMENTS % DE DIMINUTION EN NOMBRE", "setting": "[1]; [5]", "result": "81,4%"}, {"measurement": "VOMISSEMENTS % DE DIMINUTION EN TOUT OU RIEN", "setting": "[1]; [5]", "result": 25, "unit": "%"}, {"measurement": "VOMISSEMENTS NOMBRE MOYEN", "setting": "[1]; [5]", "result": 2}]}]}
